Measurements taken from publication PMC3098941 (ACS chemical biology, 2011).

Experiments:
Type in all cases: binding
Akt1 = Akt1 (Homo sapiens, UniProt P31749); test: ANS fluorescence titration of Akt; details: up to 100 μM ANS
Aurora A = biological target: T1, Aurora A (Homo sapiens, UniProt O14965); test: ANS fluorescence titration of Aurora A; details: read-out: apparent Kd of ANS for Aurora A; Aurora A 5.8 μM, slit widths 10/10
T1 sequence (O14965 123-380): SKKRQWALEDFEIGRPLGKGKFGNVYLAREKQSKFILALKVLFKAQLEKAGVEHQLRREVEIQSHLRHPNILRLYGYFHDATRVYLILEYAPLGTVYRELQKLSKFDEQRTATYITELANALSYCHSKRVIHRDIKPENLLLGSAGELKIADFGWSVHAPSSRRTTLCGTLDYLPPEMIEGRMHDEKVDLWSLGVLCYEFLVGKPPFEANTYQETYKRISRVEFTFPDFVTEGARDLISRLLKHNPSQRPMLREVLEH

Rock1 = Rock1 (Homo sapiens, UniProt Q13464); test: ANS fluorescence titration of Rock 1; details: up to 100 μM ANS
CDK2-ANS complex = CDK2-ANS complex (Homo sapiens, UniProt P24941); test: Quenching of CDK2-ANS fluorescence by ligands; details: 50 μM ANS; for effect on CDK2-ANS fluorescence yield: concentrations as high as 300 μM, 1.6 μM CDK2

Sequence of Rock1 (Q13464 5-415): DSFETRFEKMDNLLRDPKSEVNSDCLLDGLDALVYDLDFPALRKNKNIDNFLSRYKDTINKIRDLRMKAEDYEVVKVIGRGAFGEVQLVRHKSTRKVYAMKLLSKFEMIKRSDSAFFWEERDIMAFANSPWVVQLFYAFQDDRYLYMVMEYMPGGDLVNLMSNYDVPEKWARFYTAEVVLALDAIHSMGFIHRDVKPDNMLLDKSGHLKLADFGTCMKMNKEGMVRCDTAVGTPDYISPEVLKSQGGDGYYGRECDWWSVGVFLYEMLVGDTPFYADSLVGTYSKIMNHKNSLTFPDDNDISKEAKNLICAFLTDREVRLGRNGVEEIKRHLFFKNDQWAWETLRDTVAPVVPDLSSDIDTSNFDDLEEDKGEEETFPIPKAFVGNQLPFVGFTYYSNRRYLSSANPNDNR
Sequence of Akt1 (P31749 whole entry): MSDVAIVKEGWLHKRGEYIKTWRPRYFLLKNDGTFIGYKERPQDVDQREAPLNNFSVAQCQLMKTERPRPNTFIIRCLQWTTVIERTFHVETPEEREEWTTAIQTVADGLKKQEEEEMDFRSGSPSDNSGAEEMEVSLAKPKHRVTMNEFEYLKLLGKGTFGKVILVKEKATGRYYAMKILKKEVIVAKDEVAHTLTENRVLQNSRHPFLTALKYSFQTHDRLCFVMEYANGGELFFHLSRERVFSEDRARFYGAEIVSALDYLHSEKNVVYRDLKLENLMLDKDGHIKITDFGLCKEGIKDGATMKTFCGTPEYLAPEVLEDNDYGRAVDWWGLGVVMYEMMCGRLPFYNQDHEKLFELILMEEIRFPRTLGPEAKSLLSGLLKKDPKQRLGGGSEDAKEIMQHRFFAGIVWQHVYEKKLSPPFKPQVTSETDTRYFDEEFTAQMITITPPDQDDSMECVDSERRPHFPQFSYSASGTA

effect on CDK2-ANS fluorescence yield (CDK2-ANS complex)	effect on CDK2-ANS fluorescence (CDK2-ANS complex; concentrations up to 100 μM)	Compound	saturation of ANS fluorescence with Akt (Akt1)	Kd (Aurora A) [µM]	saturation of ANS fluorescence with Rock 1 (Rock1)
		O=S(=O)(O)c1cccc2cccc(Nc3ccccc3)c12 [ANS, 8-anilino-1-naphthalene sulfonate]	saturation was not reached	54	saturation was not reached
only marginally affected	did not appear to affect	Nc1ncnc2c1ncn2[C@@H]1O[C@H](COP(=O)(O)OP(=O)(O)OP(=O)(O)O)[C@@H](O)[C@H]1O [ATP]			
only marginally affected		COc1ccc(O)c(-c2nc(N)nc(N)n2)c1 [JWS648]			
